Measurements taken from patent publication US20250275929A1, “INTRAOPERATIVE TOPICALLY-APPLIED NON-IMPLANTABLE RAPID RELEASE PATCH” (PRIVO TECHNOLOGIES, INC., priority 2017, published 2025).

Assay: HPLC chromatograms of agent from patch and from gamma sterilized patch
Format: physicochemical
From the text: FIGS. 9A, 9B, and 9C are graphs showing that agent(s) included within a patch, according to embodiments of the present invention, are not modified when incorporated into the patch or when the patch is sterilized. FIG. 9A is a graph showing a high-performance liquid chromatography (H PLC) chromatogram of a cisplatin standard. FIG. 9B is a graph showing an HPLC chromatogram of a patch, which illustrates that the cisplatin was not modified.
The patch is sterilized prior to application to a surgical cavity, for example after the patch is manufactured and before packaging. In some embodiments, gamma sterilization is employed to sterilize the patch. FIGS. 9A-9C show HPLC chromatograms at various stages of product synthesis. The HPLC apparatus was an Agilent 1100 Series HPLC using a water/methanol/sodium lauryl sulfate solvent mixture adjusted to pH 2.5 with trifluoromethanesulfonic acid. FIG. 9A is an HPLC chromatogram of a cisplatin standard. FIG. 9B is an HPLC chromatogram of a cisplatin sample taken from a patch that was dissolved in a solution, which illustrates that the cisplatin was not modified while in the patch. […] Similar experiments were conducted using oxaliplatin and 5-fluorouracil. This experiment proves that the patches are able to be manufactured and sterilized while maintaining the integrity of the agent(s) included within.

For N.N.[Cl][Pt][Cl] [cisplatin], which “integrity of agent after gamma ray sterilization of patch (HPLC)” value (gamma ray sterilization for 25 minutes) is on record?
Its value is “not modified”.

And the “integrity of agent while in the patch (HPLC)” value (sample taken from a patch dissolved in a solution)?
The value was “not modified”.
